Here are results for three compounds from patent US10300048B2, “Thiazolidinones as cellular anandamide uptake inhibitors and their use in the treatment of psychiatric or neurological disorders and inflammation, in particular neuroinflammation” (UNIVERSITAT BERN, priority 2014, dated 2019).

For orientation: IC50 means the point on the concentration scale where inhibition reaches its midpoint.

In experiment [1] the target is hCB1 receptor (Homo sapiens (Human), UniProt P21554). The experiment in a line: Radioligand CB receptor binding, [3H]-CP55,940 displacement on CHO-K1 hCB1 membranes. As to conditions: for CB1 receptor binding (%) at 10 µM: Table 4. As to the method: Stably transfected CHO-K1 cells expressing hCB1 or hCB2 receptors (Gertsch et al., 2008, Proc Natl Acad Sci 105, 9099-104) were cultured in T150 cm^2 flasks up to 90% confluence. The medium was removed and cells were washed twice with PBS, 37° C. 10 mL of PBS was added and the cells were scraped and transferred into a falcon tube following homogenization by a Polytron PT1300D for 5 min at 30 krpm. Then, the homogenate was centrifuged (1400×g, 5 min) to remove debris. The supernatant was subjected to ultracentrifugation (64000×g, 45 min, 4° C.) to separate cytosolic from the membrane fraction. The supernatant was discharged and the pellet resuspended in PBS by sonication. Protein quantity was determined by BCA assay (Thermo Scientific) and aliquots of 500 μL were stored at −80° C. until use.
Radioligand CB Receptor Binding
Binding properties of ETI-T compounds to hCB1 or hCB2 receptors were performed as previously reported in a [^3H]-CP55,940 displacement assay (Gertsch et al., 2008, Proc Natl Acad Sci 105, 9099-104). WIN 55,212-2 was used as positive control. In brief, 20 μg protein of CHO-K1 hCB1 or hCB2 membrane preparations were thawed on ice and resuspended in a final volume of 500 μL binding buffer (50 mM Tris-HCl, 2.5 mM EDTA, 5 mM MgCl2, 0.5% fatty acid free BSA, pH 7.4) in silanized glass vials. [^3H]-CP55,940 (168 Ci/mmol) (PerkinElmer, Waltham, Mass., US) was added to a final concentration of 0.5 nM followed by the addition of competitors or vehicle in 5 μL DMSO. Membrane binding was equilibrated for 2 h at room temperature (25° C.). Samples were filter through a 0.1% polyethylenimine pre-soaked UniFilter®-96 GF/B plate (PerkinElmer) and washed twelve times with 167 μL ice-cold assay-buffer. The plate was dried, bottom sealed and 45 μL MicroScint 20 scintillation cocktail (PerkinElmer) were added before measured on a PerkinElmer 1450 Microbeta TRILUX liquid scintillation counter. Unspecific binding was determined by WIN 55,212-2, 10 μM and subtracted from all values. […].

The target of experiment [2] is FAAH (Homo sapiens (Human), UniProt O00519). The experiment can be described thus: FAAH activity: hydrolysis of [3H]-AEA in U937 cell homogenates. It is filed as biochemical. As to conditions: U937 cell homogenate, read-out: FAAH inhibition IC50. As to the method:
Hydrolysis of [^3H]-AEA by FAAH was determined as previously described in cell homogenates of U937 cells (0.18 mg protein) (Omeir et al., 1999, Biochem Biophys Res Commun, 264, 316-20; Mor et al., 2004, J Med Chem, 47, 4998-5008). Protein amounts of cell homogenates corresponded to 0.5×10^6 cells (U937), to assure best possible comparability of IC50 values as used for the AEA cellular uptake assays. URB597 was used as positive control. Protein quantification was performed using a BCA assay (Thermo Scientific). Enzyme activity was assessed by addition of vehicle or compounds in 10 μL DMSO to 490 μL homogenate in 10 mM Tris HCl, 1 mM EDTA, 0.1% (w/v) BSA fatty acid free, pH=8 and incubation for 15 min at 37° C. After, a mixture of AEA plus [ethanolamine-1-^3H]-AEA (0.5 nM) at final 100 nM was added to the homogenates and incubated for 15 min at 37° C. The reaction was stopped by addition of 1 mL ice-cold CHCl3:MeOH (1:1) followed by vigorous vortexing. Phase separation was achieved by centrifugation at 10′000×g at 4° C. for 10 min. Radioactivity of the separated aqueous phase (upper phase) containing [^3H-ethanolamine] or [^3H-glycerol] was measured by liquid scintillation counting on a Tri-Carb 2100 TR liquid scintillation analyzer after addition of 3.5 mL Ultima Gold scintillation cocktail (PerkinElmer Life Sciences). Results are expressed as hydrolysis of tritium substrate in percent of vehicle treated control. IC50 values were calculated by GraphPad®. Data are reported as means of n=3 independent experiments performed in triplicates.
(§1) Statistical analysis and IC50 values were determined using GraphPad® Prism 5.0 (GraphPad® Software, San Diego, Calif., US). Inhibition curves were obtained by non-linear regression using the built-in log(inhibitor) vs. response-variable slope (four parameters) function. Results were calculated as % of vehicle control of the corresponding fraction (cells, aqueous phase) if not mentioned else. In vivo results are shown in absolute values and were analyzed by a one-way ANOVA following a Tukey's multiple comparison test or student's t-test. If not indicated else the results were compared vs. vehicle (CTRL). *** P<0.001, ** P<0.01, * P<0.05, ns=not significant P>0.05.

In experiment [3] the test system is BALB/c mice. The experiment in a line: In vivo tetrad test in BALB/c mice. As to conditions: 5.0 mg/kg i.p., vs. vehicle; for anti-nociceptive effect in the hot plate test / time spent in the immobile state (catalepsy, bar test) / locomotion (RotaRod): 60 min; for body temperature (tetrad test): 1 h post injection. As to the method:
In vivo Tetrad Test in BALB/c Mice
In mice cannabimimetic substances induce a characteristic profile of behavioral effects (tetrad) which include suppression of locomotion, antinociception, hypothermia and catalepsy (Martin et al., 1991, Pharmacol Biochem Behav, 40, 471-8; Wiley, 2003, Eur J Pharmacol, 471, 185-93; Howlett et al., 2002, Pharmacol Rev, 54, 161-202). Male BALB/c mice (8 weeks old, 20-25 g body weight) were housed under standard environmental conditions (n=5 per cage) at 22-24° C. under a 12 h to 12 h light-dark cycle supplied with food and water ad libitum. ETI-T compounds were dissolved in pure DMSO and administered intraperitoneally (i.p) at doses of 5.0 mg/kg in 20 μL of vehicle 60 min prior to evaluation of behavioural effects. The tetrad test battery was carried out as follows: Rectal temperature was determined using a Physitemp thermometer (Physitemp Instruments Inc., Clifton, N.J. with a thermocoupled probe 1-2 cm into the rectum. The temperature was measured 10 min before compound administration and 1 h post injection. Changes in rectal temperature were expressed as the difference between basal and post injection temperatures. Catalepsy was determined using the bar test where mice were placed on a bar oriented parallel to and approximately 4-5 cm off of the ground. The duration of the time a mouse remained motionless (except respiration) with its front paws on the bar was scored over 40 s. Hypomotility was determined using the RotaRod performance test based on a rotating rod with forced motor activity being applied to the mouse. The maximal duration of this test was about 120 s at a velocity of 4 rpm. Analgesia was determined by the hot plate test. Mice were place on a heated plate (54-56° C.) in a Plexiglas cylinder for a maximum of 2 min. […] All experiments were repeated independently on different days. Animals were handled according to the guidelines on use and care of experimental animals (Mexican Official Norm NOM-062-ZOO-1999 published by SAGARPA in the Diario Oficial del Gobierno Mexicano, 2001), which is in accordance with the Code of Ethics of the Directive 2010/63/EU.
as §1
(Thermal pain tests record how soon the animal reacts.)

Where two headings read alike, the source gives them in different places.

hCB1 receptor, sequence (P21554 whole entry): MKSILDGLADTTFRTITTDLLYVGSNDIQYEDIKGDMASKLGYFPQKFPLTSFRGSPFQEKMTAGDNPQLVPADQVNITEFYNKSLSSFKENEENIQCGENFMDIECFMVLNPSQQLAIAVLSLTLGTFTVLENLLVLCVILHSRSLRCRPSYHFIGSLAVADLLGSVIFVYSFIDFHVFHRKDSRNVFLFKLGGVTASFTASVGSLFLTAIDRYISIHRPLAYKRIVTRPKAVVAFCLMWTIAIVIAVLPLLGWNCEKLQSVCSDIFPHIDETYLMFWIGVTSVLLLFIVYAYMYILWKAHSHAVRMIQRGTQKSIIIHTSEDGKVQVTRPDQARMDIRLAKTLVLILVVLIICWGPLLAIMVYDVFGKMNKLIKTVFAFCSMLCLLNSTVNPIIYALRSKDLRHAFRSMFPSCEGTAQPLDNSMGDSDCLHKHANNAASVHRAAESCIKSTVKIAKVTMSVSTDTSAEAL
FAAH, sequence (O00519 whole entry): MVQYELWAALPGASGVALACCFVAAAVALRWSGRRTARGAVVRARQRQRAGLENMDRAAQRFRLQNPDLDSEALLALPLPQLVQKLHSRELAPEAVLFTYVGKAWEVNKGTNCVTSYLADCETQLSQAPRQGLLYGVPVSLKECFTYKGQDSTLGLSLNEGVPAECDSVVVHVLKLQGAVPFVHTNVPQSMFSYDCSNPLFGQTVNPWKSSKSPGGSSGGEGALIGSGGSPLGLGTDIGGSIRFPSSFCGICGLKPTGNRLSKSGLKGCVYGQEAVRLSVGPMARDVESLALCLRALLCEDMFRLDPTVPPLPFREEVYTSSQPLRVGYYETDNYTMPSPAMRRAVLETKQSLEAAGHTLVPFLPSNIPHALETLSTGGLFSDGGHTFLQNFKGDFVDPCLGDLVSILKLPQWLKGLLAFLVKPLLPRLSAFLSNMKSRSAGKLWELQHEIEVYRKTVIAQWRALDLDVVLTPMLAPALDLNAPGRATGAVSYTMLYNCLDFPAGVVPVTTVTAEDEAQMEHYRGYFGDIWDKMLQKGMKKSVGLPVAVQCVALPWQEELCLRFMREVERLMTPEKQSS

Take `O=C1/C(=C/c2cc(Cl)c(O)c(Cl)c2)S/C(=N\c2ccccc2)N1Cc1ccco1` [Compound 23]: the “CB1 receptor binding % binding at 10 μM” value in experiment [1] (Table 3) stood at 24%. Further, the CB1 receptor binding (%) at 10 µM in experiment [1] was 24%. Further, in experiment [2] (Table 2), the IC50 is 60.3 µM. The IC50 in experiment [2] (Table 4) stood at 60.3 µM. Further, in experiment [3], the “anti-nociceptive effect in the hot plate test” value is “anti-nociceptive effect”; the “time spent in the immobile state (catalepsy, bar test)” value is “increased time spent in the immobile state”; the “body temperature (tetrad test)” value is given as “decreased body temperature”.

In experiment [1], `COc1cc(/C=C2\S/C(=N\c3ccccc3)N(c3ccccc3)C2=O)ccc1O` [Compound 6] came in with a CB1 receptor binding (%) at 10 µM of 64%. Moreover, the IC50 in experiment [2] (Table 4) was found to be 26.9 µM. Also, in experiment [3], the “anti-nociceptive effect in the hot plate test” value is “anti-nociceptive effect”, the “locomotion (RotaRod)” value is “reduced locomotion” and the “body temperature (tetrad test)” value is “decreased body temperature”.

The compound `COc1ccc(/C=C2\S/C(=N\c3ccc(OC)cc3)N(c3ccc(OC)cc3)C2=O)cc1` [Compound 5] returned a CB1 receptor binding (%) at 10 µM in experiment [1] of 37%. For the same compound, the IC50 in experiment [2] (Table 4) worked out at 20.4 µM. For the same compound, in experiment [3], the “anti-nociceptive effect in the hot plate test” value is listed as “anti-nociceptive effect”; the “locomotion (RotaRod)” value is on record as “reduced locomotion”; the “time spent in the immobile state (catalepsy, bar test)” value was “increased time spent in the immobile state”; the “body temperature (tetrad test)” value was “decreased body temperature”.
